Test results taken from publication PMC6567057, “Pharmacokinetic, metabolic stability, plasma protein binding and CYP450s inhibition/induction assessment studies of N-(2-pyridylmethyl)-2-hydroxiymethyl-1-pyrrolidinyl-4-(3-chloro-4-methoxy-benzylamino)-5-pyrimidine-carboxamide as potential type 5 phosphodiesterase inhibitors” (Animal Cells and Systems, 2019).
Read-outs that look alike come from different tables or passages of the source.

Legend:
[1] = In vivo pharmacokinetic study in rats; parameters: species or system male Sprague–Dawley rats; details: rat; for MRT inf: read-out: MRT0-∞
Experimental: For the iv experiment, male SD rats (n = 3) were given a single dose of NHPPC (1 mg/kg) over 1 min by dorsal venous arch of foot. Approximately 200 µL blood samples were collected at 5, 15, 30 min and 1, 2, 4, 6, 8 and 24 h post-dose via tail vein into heparinized (coated with 0.1% heparin in saline) tubes. For the oral experiments, the male rats (n = 3) were given a single dose of 2 mg/kg. Then the blood samples were collected at 10, 30 min and 1, 2, 4, 6, 8 and 24 h post-dose. Plasma was obtained after centrifugation at 8000 rpm for 6 min (4°C) within 10 min of blood-drawing and stored at –70°C until they were analyzed.
Data analysis including analyte/IS was acquired using Analyst version 1.6.1 software (AB SCIEX). All pharmacokinetic parameters (for example: K10, AUC0–t, AUC0-∞, Cmax, Tmax, t1/2, CL, Vss, MRT0–∞, etc.) were analyzed based on a non-compartmental model and using Pharsight WinNonlin version 6.3 (St. Louis, USA). The area under the concentration time curve (AUC0–t and AUC0–∞) was calculated by linear trapezoidal rule. The natural logarithms (Ln) of the fraction remaining against incubation times (min) was plotted and the first-order rate constant of turnover is determined by a linear regression model. The final results (for example: the mean, standard deviation, the remaining, device recovery, ke, bioavailability, etc.) were electronically exported into Excel 7.0 (Redmond, USA) for data processing and formatting.

CYP3A4 = test: CYP induction in human primary hepatocytes; format: in vitro ADME; details: CYP3A4, human primary hepatocytes of three batches, 0.10, 1.00 or 10.0 μM, 72 h
Experimental: (§1) The hepatocytes were seeded on a collagenated 48-well plate for 24 h in an incubator at 37°C (moisturized, with 5% CO2). The hepatocytes were then incubated with the test article thereafter. The stock solutions of omeprazole (100 mM), rifampin (20.0 mM), testosterone (200 mM), phenacetin (100 mM) and NHPPC (50.0 mM) were prepared in DMSO, and were diluted using the cell culture medium. The DMSO content in the final solutions was 0.10%, the medium containing 0.10% DMSO was used as the blank control. The cells were co-incubated with the positive control inducers or NHPPC for 72 h and during the incubation the medium was changed every day. After the incubation, the medium was discarded and replaced with 200 μL phenol red-free culture medium containing 100 μM phenacetin (CYP1A2 probe substrate) or 200 μM testosterone (CYP3A4 probe substrate). After the incubation in the presence of the probe substrates at 37°C for 1 h, the supernatants were collected and stored at −80°C until analysis. All incubations were also conducted in triplicate. The generated metabolites of the CYP1A2 and CYP3A4 probe substrates were analyzed by LC/MS/MS methods. The induction effects of the positive control inducers and NHPPC were assessed by the amount of metabolites formed in the induced and uninduced hepatocytes. The percent induction of positive control was calculated using the following equation. […]

CYP1A2 = test: CYP induction in human primary hepatocytes; format: in vitro ADME; details: CYP1A2, human primary hepatocytes of three batches, 0.10, 1.00 or 10.0 μM, 72 h
Experimental: as §1

[2] = Stability in plasma, 6 h incubation at 37°C (dog); format: in vitro ADME; details: beagle
Experimental: The phosphate buffer (100 mM) and sodium hydroxide solution (1.0 M) were prepared in deionized water. […] PPB was determined by equilibrium dialysis method. An aliquot (150 μL) of NHPPC spiked plasma and phosphate buffer (pH 7.4) was added into the donor side and the receiver side of each designated well. The plate was covered with adhesive sealing film to prevent evaporation and placed in a water-bath shaker kept at 37°C for 6 h with a rate of 50 rpm. […] At the end of 6 h, aliquots were taken from each side of each well (n = 3) and kept in a −20°C freezer prior to analysis. The stability, device recovery and PPB were calculated using the following equations: Remaining at 6 h (%)=C6h/C0h×100%, Device recovery (%)=CDonor+CReceiver/C6h×100%, PPB (%)=CDonor−CReceiver/CDonor×100%.

[3] = male, Sprague-Dawley, plasma, IV 1 mg/kg
[4] = male, Sprague-Dawley, plasma, PO 2 mg/kg

AUC(0-inf) [1, 3]: 0.866 ± 0.201 µg·h/mL | AUC(0-t) [1, 3]: 0.847 ± 0.195 µg·h/mL | clearance [1, 3]: 1.19 L/h/kg | half-life [1, 3]: 4.55 ± 0.11 h | MRT inf [1, 3]: 5.5 ± 0.36 h | Vd ([1]; male, Sprague-Dawley, plasma, IV 1 mg/kg, read-out: Vss): 6.5 ± 1 L/kg | AUC(0-inf) [1, 4]: 0.593 ± 0.137 µg·h/mL | AUC(0-t) [1, 4]: 0.583 ± 0.135 µg·h/mL | Cmax [1, 4]: 0.0526 ± 0.0129 µg/mL | Tmax [1, 4]: 6 h | half-life [1, 4]: 4.02 ± 0.39 h | MRT inf [1, 4]: 7.8 ± 0.79 h | K10 ([1]; IV 1 mg/kg): 0.15 ± 0.00 h⁻¹ | K10 ([1]; PO 2 mg/kg): 0.17 ± 0.02 h⁻¹ | percent induction of positive control (CYP3A4): less than 40% | percent induction of positive control (CYP1A2): less than 40% | remaining at 6 h, 0.2 µM ([2]; 0.2 µM, n = 3, read-out: Mean drug remaining %): 99.6 ± 0.53% | remaining at 6 h, 1 µM ([2]; 1 µM, n = 3, read-out: Mean drug remaining %): 100.4 ± 0.98% | remaining at 6 h ([2]; mean of 0.2 and 1 µM, read-out: Mean drug remaining %): 100 ± 1.24%
Compound: COc1ccc(CNc2nc(N3CCC[C@H]3CO)ncc2C(=O)NCc2ccccn2)cc1Cl [NHPPC, N-(2-pyridylmethyl)-2-hydroxiymethyl-1-pyrrolidinyl-4-(3-chloro-4-methoxy-benzylamino)-5-pyrimidine-carboxamide]
